Measured values: patent US4321265A, “7α-Methoxycephalosporins” (Toyama Chemical Co., Ltd., priority 1977, dated 1982)
≈ marks a conversion by molar mass, not a printed value. Read-outs that look alike come from different tables or passages of the source.

Experiments:
[1] = tested on: Ser. marcescens W-35; assay: Minimum inhibitory concentration (MIC), Heart Infusion agar; type: cell-based; conditions: Serratia marcescens, W35, 20 h
Procedure: (§1) Antibacterial activities of the representative compounds (Ib) of the 7α-methoxycephalosporins according to this invention are shown in Table 1. [drawing 20]
The figures given in Table 1 represent the minimum inhibitory concentration (MIC in mcg/ml) of each compound, which was determined according to the method described in "Chemotherapy (Society of Chemotherapy, Japan), Vol. 16, 98-99 (1968)": A culture obtained by cultivating the test bacterium in a Heart Infusion broth (Eiken Kagaku Co.) was inoculated into a Heart Infusion agar medium (Eiken Kagaku Co.). After 20 hours of the incubation at 37° C., the growth of the bacterium was inspected to determine the minimum inhibitory concentration (MIC in mcg/ml). […]
(§2) (1) Minimum inhibitory concentration (MIC in mcg/ml).

[2] = tested on: S. aureus F-19 (Penicillinase-producing bacterium); assay: as above; type: cell-based; conditions: Staphylococcus aureus, read-out: minimum inhibitory concentration (MIC)
Procedure: as §1
(§3) The figures given in Table 1 represent the minimum inhibitory concentration (MIC in mcg/ml) of each compound, which was determined according to the method described in "Chemotherapy (Society of Chemotherapy, Japan), Vol. 16, 98-99 (1968)": A culture obtained by cultivating the test bacterium in a Heart Infusion broth (Eiken Kagaku Co.) was inoculated into a Heart Infusion agar medium (Eiken Kagaku Co.). After 20 hours of the incubation at 37° C., the growth of the bacterium was inspected to determine the minimum inhibitory concentration (MIC in mcg/ml). The inoculation rate of the bacterium was 10^4 cells/plate (10^6 cells/ml).
as §2

[3] = tested on: Ps. aeruginosa IFO-3445; assay: as above; type: cell-based; conditions: Pseudomonas aeruginosa, read-out: minimum inhibitory concentration (MIC)
Procedure: as §1, §3, §2

[4] = tested on: Ps. aeruginosa S-68; assay: as above; type: cell-based; conditions: Pseudomonas aeruginosa, read-out: minimum inhibitory concentration (MIC)
Procedure: as §1, §3, §2

[5] = tested on: C. freundii GN-346 (Cephalosporinase-producing bacterium); assay: as above; type: cell-based; conditions: Citrobacter freundii, read-out: minimum inhibitory concentration (MIC)
Procedure: as §1, §3, §2

[6] = tested on: Ent. cloacae IID977; assay: as above; type: cell-based; conditions: Enterobacter cloacae, read-out: minimum inhibitory concentration (MIC)
Procedure: as §1, §3, §2

[7] = tested on: K. pneumoniae Y-50; assay: as above; type: cell-based; conditions: Klebsiella pneumoniae, read-out: minimum inhibitory concentration (MIC)
Procedure: as §1, §3, §2

[8] = tested on: Citrobacter N-7; assay: as above; type: cell-based; conditions: read-out: minimum inhibitory concentration (MIC)
Procedure: as §1, §3, §2

[9] = tested on: Ser. marcescens IID620; assay: as above; type: cell-based; conditions: Serratia marcescens, read-out: minimum inhibitory concentration (MIC)
Procedure: as §1, §3, §2

[10] = tested on: Prot. vulgaris GN-76; assay: as above; type: cell-based; conditions: Proteus vulgaris, read-out: minimum inhibitory concentration (MIC)
Procedure: as §1, §3, §2

[11] = tested on: Acinetobacter caloaceticus A-6; assay: as above; type: cell-based; conditions: read-out: minimum inhibitory concentration (MIC)
Procedure: as §1, §3, §2

[12] = tested on: Klebsiella spp. Y-72; assay: as above; type: cell-based; conditions: read-out: minimum inhibitory concentration (MIC)
Procedure: as §1, §3, §2

[13] = tested on: Ser. marcescens W-8; assay: as above; type: cell-based; conditions: Serratia marcescens, read-out: minimum inhibitory concentration (MIC)
Procedure: as §1, §3, §2

[14] = tested on: E. coli NIHJ; assay: as above; type: cell-based; conditions: Escherichia coli, read-out: minimum inhibitory concentration (MIC)
Procedure: as §1, §3, §2

[15] = tested on: Penicillinase (E. coli TK-3); assay: Stability to β-lactamase, iodometry (Perret); type: biochemical; conditions: E. coli TK-3 penicillinase; PCG = 100; 30° C., pH 7.0
Procedure: (§4) The stability to β-lactamase was examined by iodometry at 30° C. by the method of Perret (Perret, C. J., "Iodometric assay of penicillinase", Nature, 174, 1012-1013 (1954)), except that a 0.1 M phosphate buffer solution (pH 7.0) was used in place of the 0.2 M phosphate buffer solution (pH 6.5). The stability of each compound was shown in Table 2 in terms of relative degree of hydrolysis, assuming the stability of Cephaloridin (CER) to cephalosporinase as 100 and the stability of Penicillin G (PCG) to penicillinase as 100.

[16] = target: T1, Cephalosporinase (S. marcescens W-8) (Serratia marcescens, UniProt P18539); assay: Stability to β-lactamase, iodometry (Perret); type: biochemical; conditions: S. marcescens W-8 cephalosporinase; CER = 100; 30° C., pH 7.0
T1 construct: native preparation, details not in excerpts
T1 sequence (P18539 22-376): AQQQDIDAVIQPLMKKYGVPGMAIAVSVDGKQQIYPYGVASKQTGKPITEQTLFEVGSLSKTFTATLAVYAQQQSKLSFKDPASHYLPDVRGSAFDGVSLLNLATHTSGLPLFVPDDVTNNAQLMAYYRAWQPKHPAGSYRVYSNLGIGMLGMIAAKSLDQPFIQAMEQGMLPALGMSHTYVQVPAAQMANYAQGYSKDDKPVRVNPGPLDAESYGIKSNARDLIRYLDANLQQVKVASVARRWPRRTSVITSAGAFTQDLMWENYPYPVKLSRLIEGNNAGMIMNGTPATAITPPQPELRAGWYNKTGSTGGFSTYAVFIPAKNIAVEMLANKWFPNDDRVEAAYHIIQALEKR
Procedure: as §4

[17] = tested on: Penicillinase (K. pneumoniae Y-4); assay: Stability to β-lactamase, iodometry (Perret); type: biochemical; conditions: K. pneumoniae Y-4 penicillinase; PCG = 100; 30° C., pH 7.0
Procedure: as §4

[18] = target: T2, Cephalosporinase (E. coli GN-5482) (Escherichia coli, UniProt P00811); assay: Stability to β-lactamase, iodometry (Perret); type: biochemical; conditions: E. coli GN-5482 cephalosporinase; CER = 100; 30° C., pH 7.0
T2 construct: native preparation, details not in excerpts
T2 sequence (P00811 20-377): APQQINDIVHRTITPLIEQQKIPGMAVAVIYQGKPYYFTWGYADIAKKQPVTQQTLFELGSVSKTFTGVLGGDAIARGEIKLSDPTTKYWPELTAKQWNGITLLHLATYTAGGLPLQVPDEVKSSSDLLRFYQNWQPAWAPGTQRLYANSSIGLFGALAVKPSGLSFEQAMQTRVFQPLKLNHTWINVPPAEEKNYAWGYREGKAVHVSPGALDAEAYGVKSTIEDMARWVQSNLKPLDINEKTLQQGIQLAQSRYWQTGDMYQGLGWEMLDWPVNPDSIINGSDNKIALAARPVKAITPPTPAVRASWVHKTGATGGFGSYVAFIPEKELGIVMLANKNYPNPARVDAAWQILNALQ
Procedure: as §4

[19] = tested on: Penicillinase (P. aeruginosa GN-3379); assay: Stability to β-lactamase, iodometry (Perret); type: biochemical; conditions: P. aeruginosa GN-3379 penicillinase; PCG = 100; 30° C., pH 7.0
Procedure: as §4

[20] = tested on: S. marcescens W-35; assay: Infection-protective activity in mice; type: in vivo, ICR-strain mice (male); conditions: subcutaneous, one hour after intraperitoneal inoculation; challenge dose 2.5 × 10^5 cells/mouse; ICR mice
Text: Four-week old ICR-strain mice (male) in groups, each group consisting of five mice, were inoculated intraperitoneally with a prescribed quantity of a pathogenic bacterium suspended in 5% mucin. After one hour from the inoculation, the mice were subcutaneously administered with the test preparation to determine the infection-protective activity. The figures in Table 4 represent the protective activity in terms of ED50.

[21] = Ser. marcescens W-35, 10^6 cells/ml, 20 hours, 37° C. (Table 1), read-out: minimum inhibitory concentration (MIC)
[22] = S. aureus F-19, 10^6 cells/ml, 20 hours, 37° C.
[23] = IFO3445, Ps. aeruginosa IFO-3445, 10^6 cells/ml, 20 hours, 37° C.
[24] = S68, Ps. aeruginosa S-68, 10^6 cells/ml, 20 hours, 37° C.
[25] = GN346, C. freundii GN-346, 10^6 cells/ml, 20 hours, 37° C.
[26] = Ent. cloacae IID977, 10^6 cells/ml, 20 hours, 37° C.
[27] = Y50, K. pneumoniae Y-50, 10^6 cells/ml, 20 hours, 37° C.
[28] = N7, Citrobacter N-7, 10^6 cells/ml, 20 hours, 37° C.
[29] = Ser. marcescens IID620, 10^6 cells/ml, 20 hours, 37° C.
[30] = GN76, Prot. vulgaris GN-76, 10^6 cells/ml, 20 hours, 37° C.
[31] = A6, Acinetobacter caloaceticus A-6, 10^6 cells/ml, 20 hours, 37° C.
[32] = SPP.Y72, Klebsiella spp. Y-72, 10^6 cells/ml, 20 hours, 37° C.
[33] = W8, Ser. marcescens W-8, 10^6 cells/ml, 20 hours, 37° C.
[34] = E. coli NIHJ, 10^6 cells/ml, 20 hours, 37° C.

| Structure (SMILES) | MIC [1, 21] | MIC [2, 22] | MIC [3, 23] | MIC [4, 24] | MIC [5, 25] | MIC [6, 26] | MIC [7, 27] | MIC [8, 28] | MIC [9, 29] | MIC [10, 30] | MIC [11, 31] | MIC [12, 32] | MIC [13, 33] | MIC [14, 34] | other results |
| --- | --- | --- | --- | --- | --- | --- | --- | --- | --- | --- | --- | --- | --- | --- | --- |
| CCN1CCN(C(=O)NC(C(=O)N[C@]2(OC)C(=O)N3C(C(=O)O)=C(CSc4nnnn4CC(=O)NO)CS[C@@H]32)c2cccs2)C(=O)C1=O (stereo partly shown) | 200 µg/mL (≈ 276 µM) | 25 µg/mL (≈ 34.5 µM) | 12.5 µg/mL (≈ 17.2 µM) | 25 µg/mL (≈ 34.5 µM) | ≥ 200 µg/mL | 200 µg/mL (≈ 276 µM) | 1.56 µg/mL (≈ 2.15 µM) | 50 µg/mL (≈ 69 µM) | 0.78 µg/mL (≈ 1.08 µM) | 0.78 µg/mL (≈ 1.08 µM) | 1.56 µg/mL (≈ 2.15 µM) | 100 µg/mL (≈ 138 µM) | 100 µg/mL (≈ 138 µM) | ≤ 0.1 µg/mL | – |
| CC1(C)S[C@@H]2[C@H](NC(=O)Cc3ccccc3)C(=O)N2[C@H]1C(=O)O [PC-G, Penicillin G] | – | – | – | – | – | – | – | – | – | – | – | – | – | – | Stability to β-lactamase, relative degree of hydrolysis [15]: 100; Stability to β-lactamase, relative degree of hydrolysis [16]: 21; Stability to β-lactamase, relative degree of hydrolysis [17]: 100; Stability to β-lactamase, relative degree of hydrolysis [18]: 22; Stability to β-lactamase, relative degree of hydrolysis [19]: 100 |
| CO[C@@]1(NC(=O)CSCC#N)C(=O)N2C(C(=O)O)=C(CSc3nnnn3C)CS[C@@H]21 [CS-1170, reference compound] | – | – | – | – | – | – | – | – | – | – | – | – | – | – | MIC ([1]; S. marcescens W-35, inoculated bacteria quantity 10^6 cells/ml (Table 4)): 100 µg/mL (≈ 212 µM); MIC ([1]; S. marcescens W-35, inoculated bacteria quantity 10^8 cells/ml (Table 4)): 200 µg/mL (≈ 424 µM); MIC ([1]; read-out: minimum inhibitory concentration (MIC), Ser. marcescens W-35, 10^6 cells/ml, 20 hours, 37° C. (Table 1)): 100 µg/mL (≈ 212 µM); ED50 (infection-protective activity) [20]: 15.1 mg/mouse; MIC ([2]; 20 h): 1.56 µg/mL (≈ 3.31 µM); MIC ([3]; IFO3445, 20 h): ≥ 200 µg/mL; MIC ([4]; S68, 20 h): ≥ 200 µg/mL; MIC ([5]; GN346, 20 h): ≥ 200 µg/mL; MIC ([6]; IID977, 20 h): ≥ 200 µg/mL; MIC ([7]; Y50, 20 h): 0.39 µg/mL (≈ 0.827 µM); MIC ([8]; Citrobacter, N7, 20 h): 25 µg/mL (≈ 53 µM); MIC ([9]; IID620, 20 h): 3.13 µg/mL (≈ 6.64 µM); MIC ([10]; GN76, 20 h): 3.13 µg/mL (≈ 6.64 µM); MIC ([11]; Acinetobacter, A6, 20 h): 50 µg/mL (≈ 106 µM); MIC ([12]; Klebsiella, SPP.Y72, 20 h): 12.5 µg/mL (≈ 26.5 µM); MIC ([13]; W8, 20 h): ≥ 200 µg/mL; MIC ([14]; 20 h): 0.39 µg/mL (≈ 0.827 µM) |
| C=Cn1nnnc1SCC1=C(C(=O)O)N2C(=O)[C@](NC(=O)C(NC(=O)N3CCN(CC)C(=O)C3=O)c3cccs3)(OC)[C@H]2SC1 (stereo partly shown) | 12.5 µg/mL (≈ 18.4 µM) | 3.13 µg/mL (≈ 4.62 µM) | 25 µg/mL (≈ 36.9 µM) | 12.5 µg/mL (≈ 18.4 µM) | 12.5 µg/mL (≈ 18.4 µM) | 25 µg/mL (≈ 36.9 µM) | 0.39 µg/mL (≈ 0.575 µM) | 3.13 µg/mL (≈ 4.62 µM) | 0.2 µg/mL (≈ 0.295 µM) | 0.78 µg/mL (≈ 1.15 µM) | 12.5 µg/mL (≈ 18.4 µM) | 6.25 µg/mL (≈ 9.22 µM) | 25 µg/mL (≈ 36.9 µM) | ≤ 0.1 µg/mL | – |
| CCN1CCN(C(=O)NC(C(=O)N[C@]2(OC)C(=O)N3C(C(=O)O)=C(CSc4nnnn4CC(C)=NO)CS[C@@H]32)c2cccs2)C(=O)C1=O (stereo partly shown) | 25 µg/mL (≈ 34.6 µM) | 3.13 µg/mL (≈ 4.33 µM) | 25 µg/mL (≈ 34.6 µM) | 12.5 µg/mL (≈ 17.3 µM) | 50 µg/mL (≈ 69.2 µM) | 25 µg/mL (≈ 34.6 µM) | 0.78 µg/mL (≈ 1.08 µM) | 6.25 µg/mL (≈ 8.65 µM) | 0.2 µg/mL (≈ 0.277 µM) | 0.78 µg/mL (≈ 1.08 µM) | 12.5 µg/mL (≈ 17.3 µM) | 6.25 µg/mL (≈ 8.65 µM) | 50 µg/mL (≈ 69.2 µM) | ≤ 0.1 µg/mL | – |
